Series [1] relates to primary human T-cells.
Series [2] has as its system B. anthracis Sterne 7702 bacilli (wild-type).
The subject of series [3] is K. pneumoniae BL13802.
Series [4] deals with human RBCs.
Series [5] deals with B. anthracis Sterne 7702 ΔftsX bacilli.
Series [6] concerns CXCR3-expressing human T-cells. Format: cell-based.
For series [7], the system named is B. anthracis Sterne 7702 spores. Format: cell-based, Bacillus anthracis.
Series [8] relates to E. faecium AR0575. It is filed as cell-based, Enterococcus faecium.
Series [9] relates to S. aureus LAC. It is filed as cell-based, Staphylococcus aureus.
Series [10] concerns mcr-1-positive E. coli FI-4531, E. coli J53 and K. pneumoniae 13883. It is filed as cell-based, Escherichia coli; Klebsiella pneumoniae.
In series [11] the test system is K. pneumoniae MS84 (disrupted mgrB). Format: cell-based, Klebsiella pneumoniae.
The test system of series [12] is K. pneumoniae BA2664 (mutated pmrB). It is filed as cell-based, Klebsiella pneumoniae.
For series [13], the system named is N. gonorrhoeae FA1090. Format: cell-based, Neisseria gonorrhoeae.
Series [14] has as its system N. gonorrhoeae H041. Format: cell-based, Neisseria gonorrhoeae.
In series [15] the test system is A. baumannii AR0304. Format: cell-based, Acinetobacter baumannii.
For series [16] the following is noted: pH 7.4.
Series [17] relates to E. cloacae BL36213. It is filed as cell-based, Enterobacter cloacae.

“Also recorded” adds a separate entry of the source. Like-named read-outs stand apart in the source and are kept apart here. Residues, ends and D or L forms follow the SMILES beside them.

As a reminder, the EC50 is the midpoint of the concentration-response curve.

As to `CC[C@H](C)[C@H](NC(=O)[C@H](CO)NC(=O)[C@@H](NC(=O)[C@H](CS)NC(=O)[C@@H](NC(=O)[C@H](CS)NC(=O)[C@H](CCCNC(=N)N)NC(=O)[C@@H](NC(=O)[C@@H](NC(=O)[C@H](CCCNC(=N)N)NC(=O)[C@H](CO)NC(=O)[C@H](CC(C)C)NC(=O)[C@@H]1CCCN1C(=O)[C@@H](N)C(C)C)[C@@H](C)O)C(C)C)[C@@H](C)O)[C@@H](C)CC)C(N)=O` [P1] (H-VPLSRTVRCTCISI-NH2), the “percentage of dead cells” value in series [1] is on record as “less than 5%”. Besides, the EC50 in series [2] (Sterne 7702 bacilli (wild-type, 4 h)) was found to be 18.1 ± 0.3 µM; in [3] (BL13802, 2 h) it was 13.4 ± 1.2 µM; in series [5] (Sterne 7702 ΔftsX bacilli, 4 h) it was 53.1 ± 0.8 µM. For the same compound, in series [4], the hemolysis entry was “negligible hemolysis”.
For the compound CXCL10, the “chemotactic index (CI)” value in series [6] was “approximately 6”.
Take EIIATMKKKGEKRCL [P5]: the T-cell migration result in series [6] is “did not elicit T-cell migration”. Besides, the “percentage of dead cells” value in [1] is given as “less than 5%”. In series [7], the “decrease of heat-treated cfu counts versus initial spore inoculum” value was approximately 200 fold and the “increase of cfu counts without heat treatment versus initial spore inoculum” value was “more than 10 fold”. The hemolysis entry in [4] was “negligible hemolysis”.
Consider KNLLKAVSKERSKRSP [P8], for which the “% survival (cfu/ml)” value in series [3] was “efficiently killed K. pneumoniae”.
Melittin [reference compound]: the hemolysis result in series [4] is listed as “high levels of hemolysis”.
For the compound “PESKAIK(S5A)LLK(S5A)VSKERSKRSP (sidechain bridge or staple) [stapled peptide P9]”, the “bacterial killing (in words)” value in series [8] was “particularly susceptible”; in series [9] it was “particularly susceptible”; in series [10], “killed colistin-resistant K. pneumoniae and E. coli strains”; in series [11], “killed colistin-resistant K. pneumoniae”; in series [12], “killed colistin-resistant K. pneumoniae”; in series [13], “particularly susceptible”. In addition, the “bacterial killing (in words)” value in series [14] and in series [15] was “particularly susceptible” each time. Moreover, the “cytotoxic effects (dead cells)” value in [1] is recorded as “greatly reduced”. The “percentage of dead cells” value in series [1] is approximately 45%. Further, in [7], the “viability of ungerminated spores compared to the initial inoculum” value is reported as “modest reductions in the viability of ungerminated spores”. The EC50 in [2] was 8.5 ± 0.9 µM; in series [2] (read-out: EC50 values (as stated in running text)) it was 4 to 5 µM; in [5] it was 9.6 ± 1 µM. Moreover, the hemolysis entry in series [4] was “neither pre-stapled nor stapled peptide P9 exerted hemolytic effects”.
As to “PESKAIK(S5A)LLK(S5A)VSKERSKRSP [pre-stapled peptide P9]”, the EC50 in series [2] turned out to be 4.3 ± 0.4 µM; in series [5], 5 ± 1.2 µM.
In the case of PESKAIKNLLKAVSKERSKRSP [P9], the “bacterial killing (in words)” value is recorded as “lost its capacity to kill any of the isolates examined; also recorded: little to no effect on the viability” in [8]; “lost its capacity to kill any of the isolates examined; also recorded: little to no effect on the viability” in series [9]; “undiminished” in [10]; “but not peptide P9” in series [11]; “lost its capacity to kill any of the isolates examined; also recorded: except E. cloacae” in series [17]; “but not peptide P9” in [12]. Further, the “bacterial killing (in words)” value in series [13] and in [14] was “reductions in bacterial viability were more modest” in each case. In addition, in series [1], the “percentage of dead cells” value is on record as “less than 5%”. For the same compound, the “secondary structure content: antiparallel β-sheet” value in series [16] came out at 12%. The “secondary structure content: turn” value in [16] is 18%. In addition, the “secondary structure content: α-helix” value in [16] was 35%. Further, the “% survival (cfu/ml)” value in series [3] is “efficiently killed K. pneumoniae”. Besides, the “bacterial survival (RFU)” value in series [3] is on record as “abolished the ability”. For the same compound, the hemolysis result in series [4] is “negligible hemolysis”.
Turning to TISVCPTLRRIVSC [P1scram], the “bacterial viability, % survival (RFU)” value in series [2] is reported as “abolished antimicrobial activity”.

Source of the values: publication PMC9841529 (ACS Infectious Diseases, 2022).
